From US20240399175A1, “REVERSAL OF SENESCENCE BY ULTRASOUND IRRADIATION” (Board of Regents, The University of Texas System, priority 2021, published 2024) come the findings set out here.

For the assay, the system named is Vero cells. Briefly: Senescence induction in Vero cells by chemical stressors (growth, cell size). It is filed as cell-based, African monkey. To be noted: for cell growth of stressor-treated cells: 200 μM H2O2, 4 μM sodium butyrate, 25 μM Bleomycin Sulphate for 36-48 hours, growth over 48 h. The procedure:
To test the generality of any senescent treatment, the inventors used four different methods to cause Vero cell senescence, replicative, hydrogen peroxide, sodium butyrate and Bleomycin sulfate. Senescence was measured as a decreased growth rate, increased O-gal activity, increased cell size, and secretion of pro-inflammatory factors called SASP. All four criteria were met with each type of senescent cells (FIGS. 1A to 1G). […] (FIG. 1B). There were significant differences in the size of the senescent cells with bleomycin sulfate-treated cells being the largest and replicative senescent cells the smallest (FIGS. 1C and 1D). To assay for SASP activity, the inventors cultured the senescent cells overnight and collected the supernatant from each dish. Supernatants were diluted 1:1 with fresh media and added to normal control cells. The change in normal cell number was measured after a 48 hour incubation. […] When β-galactosidase levels were measured by antibody staining, there was a relatively uniform increase in levels (FIGS. 1F and 1G). Thus, by all four criteria, the four different types of senescent cells were indeed senescent.
Senescence induction and quantification. Vero cells were treated with various stressors including 200 μM H2O2, 4 μM of sodium butyrate (SB), and 25 μM of Bleomycin Sulphate (BS) and incubated for 36-48 hours. After washing with PBS and then replacing growth medium with fresh medium, cells were incubated for 4 days to confirm the growth arrest of senescent cells. […] The inventors used four criteria to determine if cells were senescent; (1) Cell cycle arrest by determining the growth rate, (2) Increase in cell spread area, (3) Development of senescence associated secretory phonotype (SASP) in culture medium, and (4) beta-gal staining. The inventors captured images of cells with an Evos microscope at 10× magnification after treatment and 48 hours post treatment. To measure growth by the increase in cell number, 15 random images were captured, then the average number of cells were determined, which was divided by the area of one frame to get the cell density (cells/cm^2). Then this seeding density was multiplied by the total area of the dish or well to obtain the total number of cells after US treatment and after 48 hours if incubation. The total number of cells at 48 hours was divided by the total number of cells just after the treatment to determine the growth rate. If the ratio was one, there was no growth.
Senescence was detected by the beta-gal senescence staining kit as per manufacturer's protocol. […] The percentages of beta-gal positive cells were determined by counting the number of blue cells and dividing by the total number of cells. Cell spread area was determined by capturing the mages of cells with a 10× objective using an Evos microscope. […]

As for Bleomycin sulfate, the “cell growth of stressor-treated cells” value is “cell growth was effectively blocked”. Where the note is “comparison among types of senescent cells”, the “size of the senescent cells” value is “largest”.

`CCCC(=O)[O-].[Na+]` [sodium butyrate]: the “cell growth of stressor-treated cells” value is “cell growth was effectively blocked”.

As for `OO` [hydrogen peroxide], the “cell growth of stressor-treated cells” value is listed as “cell growth was effectively blocked”.
